≈ marks a conversion by molar mass, not a printed value. Calls of active or inactive are those of the source. Some results are limits rather than exact numbers.

The test system of one data set is Streptococcus pneumoniae. The experiment in a line: Antimicrobial activity against Streptococcus pneumoniae. Format: functional, organism-based.
A short description of data set [1]: Apparent permeability from apical to basolateral side in human Caco2 cells. Format: ADME, cell-based. As to conditions: caco-2. A general note: Caco-2 cells form a polarised layer with tight junctions and transporters.
The nature of data set [2]: Half life in mouse liver microsomes. The note with it: microsomes. The format is ADME. A general note: Liver microsomes are vesicles of endoplasmic reticulum, rich in cytochrome P450 enzymes.
In a further data set the test system is Vero. The experiment in a line: Cytotoxicity against African green monkey Vero cells by cell titer glo assay. Format: cell-based. The note with it: Chlorocebus sabaeus.
Data set [3] is described as follows: Volume of distribution at steady state in C57BL/6 mouse at 10 mg/kg, iv. The note with it: in vivo, read-out: Vdss. The format is ADME, organism-based.
The nature of data set [4]: Half life in C57BL/6 mouse at 10 mg/kg, iv. As to conditions: in vivo. Format: ADME, organism-based.
In data set [5] the test system is Mycobacterium tuberculosis. The experiment in a line: Antimicrobial activity against Mycobacterium tuberculosis H37Rv infected in C57BL/6 mouse assessed as reduction in bacterial load at 100 mg/kg, po after 28 days. Format: functional, organism-based.
A short description of data set [6]: Apparent permeability from basolateral to apical side in human Caco2 cells. Format: ADME, cell-based. The note with it: caco-2.
The next data set relates to Acinetobacter baumannii. The experiment in a line: Antimicrobial activity against Acinetobacter baumannii. Format: functional, organism-based.
For another data set, the system named is Streptococcus pyogenes. Description: Antimicrobial activity against Streptococcus pyogenes. The format is functional, organism-based.
The next data set has as its system Staphylococcus aureus. The experiment in a line: Antimicrobial activity against Staphylococcus aureus. The format is functional, organism-based.
Data set [7] in a line: AUC(infinity) in C57BL/6 mouse at 10 mg/kg, iv. The format is ADME, organism-based. As to conditions: in vivo. Also noted: dose 10 mg/kg, time infinity, route intravenous.
The next data set relates to Enterococcus faecalis. Description: Antimicrobial activity against Enterococcus faecalis. Format: functional, organism-based.
The subject of the next data set is Mus musculus. The experiment in a line: Toxicity in C57BL/6 mouse at 300 mg/kg, po after 3 days. The format is organism-based. As to conditions: in vivo, 72 h.
The next data set deals with Escherichia coli. The experiment in a line: Antimicrobial activity against Escherichia coli. The format is functional, organism-based.
A further data set deals with Klebsiella pneumoniae. Description: Antimicrobial activity against Klebsiella pneumoniae. The format is functional, organism-based.
The subject of another data set is Bacillus anthracis. The experiment in a line: Antimicrobial activity against Bacillus anthracis. Format: functional, organism-based.
Another data set has as its system Bacillus subtilis. The experiment in a line: Antimicrobial activity against Bacillus subtilis. The format is functional, organism-based.
The nature of data set [8]: Plasma protein binding in human. Format: ADME, cell-free.
Data set [9] is described as follows: Clearance in C57BL/6 mouse at 10 mg/kg, iv. Format: ADME, organism-based. As to conditions: in vivo.
The test system of data set [10] is Mycobacterium tuberculosis. The experiment in a line: Antimicrobial activity against Mycobacterium tuberculosis H37Rv assessed as growth inhibition after 7 days by microbroth dilution method. The format is functional. The note with it: 168 h. (In general: In broth dilution the organism is exposed to a series of concentrations in liquid medium.)

As for `O=[N+]([O-])c1cn2c(n1)OC[C@@H](OCc1ccc(N3CCOCC3)c(F)c1)C2`, the result (in the data set with Streptococcus pneumoniae; in data set [5]; in the data set on Acinetobacter baumannii; with Streptococcus pyogenes; with Staphylococcus aureus; in the data set with Enterococcus faecalis) was inactive. Moreover, the result in the data set with Escherichia coli, with Klebsiella pneumoniae, in the data set on Bacillus anthracis and in the data set with Bacillus subtilis was inactive. The Papp in data set [1] is on record as 433.3 nm/s; in data set [6], 332.8 nm/s. For the same compound, in data set [2], the t1/2 came to 7.7 h. Half-maximal inhibition with Vero (IC50) required 23.1 µg/mL (≈ 61.1 µM). For the same compound, the Vd in data set [3] turned out to be 1.16 L/kg. In data set [4], the half-life was 58.8 min. Moreover, the AUC(0-inf) in data set [7] was 10100 ng·h/mL. The Activity entry in the data set on Mus musculus is on record as “Non-toxic”. This compound also yielded a PPB in data set [8] of 51.3%. In addition, the clearance in [9] is 16.5 mL/min/kg.
With `O=C1COCCN1c1ccc(CO[C@@H]2COc3nc([N+](=O)[O-])cn3C2)cc1F`, the outcome (in the data set on Streptococcus pneumoniae; in data set [5]; in the data set on Acinetobacter baumannii; with Streptococcus pyogenes; in the data set with Staphylococcus aureus; in the data set with Enterococcus faecalis) was inactive. Also, the result with Escherichia coli, in the data set on Klebsiella pneumoniae, with Bacillus anthracis and in the data set with Bacillus subtilis was inactive. Further, the Papp in data set [1] was 505.7 nm/s; in data set [6] it was 316.7 nm/s. In addition, the t1/2 in data set [2] was 13.2 h. In the data set with Vero, this compound yielded an IC50 of more than 100 µg/mL. For the same compound, the Vd in [3] turned out to be 0.63 L/kg. The half-life in data set [4] is 16.8 min. In data set [7], this compound returned an AUC(0-inf) of 5180 ng·h/mL. Besides, in data set [10], the MIC turned out to be 0.78 µg/mL (≈ 1.99 µM). Further, the Activity result in the data set with Mus musculus is reported as “Non-toxic”. This compound also gave a PPB in data set [8] of 67.8%. Further, in data set [9], the clearance is 32.3 mL/min/kg.
Take `O=C1COCCN1c1ccc(CO[C@@H]2COc3nc([N+](=O)[O-])cn3C2)cc1`: the result (in the data set on Streptococcus pneumoniae; in data set [5]; with Acinetobacter baumannii; in the data set on Streptococcus pyogenes; in the data set with Staphylococcus aureus; with Enterococcus faecalis) was inactive. Further, the outcome in the data set on Escherichia coli, in the data set with Klebsiella pneumoniae, in the data set on Bacillus anthracis and in the data set with Bacillus subtilis was inactive. The figures for the Papp in data set [1] and in data set [6] were 400.8 nm/s and 305.6 nm/s, respectively. In data set [2], this compound registered a t1/2 of 18.3 h. In addition, in the data set on Vero, the IC50 is more than 100 µg/mL. In [3], the Vd came out at 0.79 L/kg. This compound also gave a half-life in data set [4] of 28.8 min. In addition, in [7], the AUC(0-inf) was 7410 ng·h/mL. Further, in [10], the MIC was 0.78 µg/mL (≈ 2.08 µM). In the data set with Mus musculus, the Activity result was “Non-toxic”. The compound also came in with a PPB in data set [8] of 50.4%. For the same compound, the clearance in [9] came out at 22.5 mL/min/kg.
With `O=[N+]([O-])c1cn2c(n1)OC[C@@H](OCc1ccc(N3CCSCC3)c(F)c1)C2`, the outcome in the data set on Streptococcus pneumoniae, in the data set on Acinetobacter baumannii, in the data set on Streptococcus pyogenes, in the data set with Staphylococcus aureus, with Enterococcus faecalis and in the data set on Escherichia coli was inactive. Further, the result in the data set on Klebsiella pneumoniae, with Bacillus anthracis and in the data set on Bacillus subtilis was inactive. Besides, the Papp is 321.1 nm/s in [1] and 242.6 nm/s in [6]. This compound displayed a t1/2 in [2] of 0.06 h. For the same compound, half-maximal inhibition in the data set on Vero (IC50) was put at 14.2 µg/mL (≈ 36 µM). Also, the MIC in data set [10] stood at 3.13 µg/mL (≈ 7.94 µM). In data set [8], this compound displayed a PPB of 83.2%.
For the compound `O=[N+]([O-])c1cn2c(n1)OC[C@@H](OCc1ccc(N3CCOCC3)cc1)C2`, the outcome in the data set with Streptococcus pneumoniae, with Acinetobacter baumannii, in the data set with Streptococcus pyogenes, in the data set with Staphylococcus aureus, in the data set on Enterococcus faecalis and in the data set with Escherichia coli was inactive. The outcome in the data set on Klebsiella pneumoniae, with Bacillus anthracis and with Bacillus subtilis was inactive. In addition, the Papp stood at 414.9 nm/s in [1] and 322.5 nm/s in [6]. In data set [2], this compound had a t1/2 of 8.3 h. Also, half-maximal inhibition in the data set on Vero (IC50) was put at 42.3 µg/mL (≈ 117 µM). Also, the MIC in data set [10] was found to be 3.13 µg/mL (≈ 8.69 µM). Moreover, the PPB in data set [8] is 39.4%.
Take `O=[N+]([O-])c1cn2c(n1)OC[C@@H](OCc1ccc(N3CCOCC3)nc1)C2`: the outcome with Streptococcus pneumoniae, with Acinetobacter baumannii, in the data set with Streptococcus pyogenes, in the data set with Staphylococcus aureus, in the data set with Enterococcus faecalis and with Escherichia coli was inactive. Besides, the result in the data set on Klebsiella pneumoniae, in the data set on Bacillus anthracis and in the data set on Bacillus subtilis was inactive. For the same compound, the apparent permeability coefficient (Papp) in data set [1] came out at 371.3 nm/s; in [6] it was 276.3 nm/s. In [2], this compound had a t1/2 of 28.1 h. This compound also had an IC50 with Vero of more than 100 µg/mL. For the same compound, the MIC in data set [10] came out at 3.13 µg/mL (≈ 8.66 µM). This compound also had a PPB in data set [8] of 14.5%.

The term Papp denotes the rate of passage across a membrane or cell layer, normalised by area and donor concentration. As a reminder, the IC50 is the concentration that inhibits the measured activity by half. One may read the half-life as the time needed for the level to fall by half in the phase considered. A word on the AUC(0-inf): it is total exposure, with the tail of the curve extrapolated. As a reminder, the clearance is the rate of elimination divided by the concentration. In general, MIC refers to the least concentration at which growth counts as inhibited.

The record behind these values is ChEMBL document CHEMBL3745652, “Synthesis and evaluation of pretomanid (PA-824) oxazolidinone hybrids” (Bioorg Med Chem Lett, 2016).
